# Measurements reported in PubChem BioAssay AID2060505 (Molecular Pharmacology Branch, DTP, NCI, 2025).
# Tested on: 633275-114-R-J1-PDC complex spheroids, viability
# Assay: Anticancer human tumor 633275-114-R-J1-PDC patient-derived endometrial adenocarcinoma cell line growth inhibition [GQUAD]
# Details: for IC50: curve of first compound; for viability, T/C: stronger effect = lower value
# Summary of the method: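 Multi-cell-type spheroids of tumor cells with HUVEC and mesenchymal stem cells, treated with drug combinations. Concentrations descend in half-log steps from near clinical Cmax, or from 10 microM where Cmax is unknown; viability read-out.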
# [1] = second compound 0.0316 µM, first compound 0.0316 µM
# [2] = second compound 0.0316 µM, first compound 0.1 µM
# [3] = second compound 0.0316 µM, first compound 0.316 µM
# [4] = second compound 0.0316 µM, first compound 1 µM
# [5] = second compound 0.0316 µM, first compound 3.16 µM
# [6] = second compound 0.0316 µM, first compound 10 µM
# [7] = second compound 0.1 µM, first compound 0.0316 µM
# [8] = second compound 0.1 µM, first compound 0.1 µM
# [9] = second compound 0.1 µM, first compound 0.316 µM
# [10] = second compound 0.1 µM, first compound 1 µM
# [11] = second compound 0.1 µM, first compound 3.16 µM
# [12] = second compound 0.1 µM, first compound 10 µM
# [13] = second compound 0.316 µM, first compound 0.0316 µM
# [14] = second compound 0.316 µM, first compound 0.1 µM
# [15] = second compound 0.316 µM, first compound 0.316 µM
# [16] = second compound 0.316 µM, first compound 1 µM
# [17] = second compound 0.316 µM, first compound 3.16 µM
# [18] = second compound 0.316 µM, first compound 10 µM
# [19] = second compound 1 µM, first compound 0.0316 µM
# [20] = second compound 1 µM, first compound 0.1 µM
# [21] = second compound 1 µM, first compound 0.316 µM
# [22] = second compound 1 µM, first compound 1 µM
# [23] = second compound 1 µM, first compound 3.16 µM
# [24] = second compound 1 µM, first compound 10 µM
# [25] = second compound 3.16 µM, first compound 0.0316 µM
# [26] = second compound 3.16 µM, first compound 0.1 µM
# [27] = second compound 3.16 µM, first compound 0.316 µM
# [28] = second compound 3.16 µM, first compound 1 µM
# [29] = second compound 3.16 µM, first compound 3.16 µM
# [30] = second compound 3.16 µM, first compound 10 µM
# [31] = second compound 10 µM, first compound 0.0316 µM
# [32] = second compound 10 µM, first compound 0.1 µM
# [33] = second compound 10 µM, first compound 0.316 µM
# [34] = second compound 10 µM, first compound 1 µM
# [35] = second compound 10 µM, first compound 3.16 µM
# [36] = second compound 10 µM, first compound 10 µM
# 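Further: spheroids exposed to the agents for seven days.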
# 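Wherever viability, T/C is given: percent of DMSO vehicle control viability which is 100%.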
structure (smiles),measurement,setting,value
Cc1cccc(N(C)C(=O)C2C(O)CCN2c2nc(C)cc(C(F)(F)F)c2C#N)c1 (stereo unspecified) + Cc1[nH]c2ccc(F)cc2c1-c1nc2c3cccnc3c3ncccc3c2[nH]1,IC50,second compound 0.0316 µM,> 10000 nM
same,IC50,second compound 0.1 µM,> 10000 nM
same,IC50,second compound 0.316 µM,> 10000 nM
same,IC50,second compound 1 µM,> 10000 nM
same,IC50,second compound 3.16 µM,> 10000 nM
same,IC50,second compound 10 µM,> 10000 nM
same,"viability, T/C",[1],108%
same,"viability, T/C",[2],97.1%
same,"viability, T/C",[3],103%
same,"viability, T/C",[4],94%
same,"viability, T/C",[5],99.8%
same,"viability, T/C",[6],99.4%
same,"viability, T/C",[7],99.2%
same,"viability, T/C",[8],99.9%
same,"viability, T/C",[9],97.4%
same,"viability, T/C",[10],94.3%
same,"viability, T/C",[11],91.6%
same,"viability, T/C",[12],101%
same,"viability, T/C",[13],91.1%
same,"viability, T/C",[14],101%
same,"viability, T/C",[15],99.5%
same,"viability, T/C",[16],98.9%
same,"viability, T/C",[17],98%
same,"viability, T/C",[18],99.2%
same,"viability, T/C",[19],86.4%
same,"viability, T/C",[20],86.2%
same,"viability, T/C",[21],90.1%
same,"viability, T/C",[22],90.4%
same,"viability, T/C",[23],91.7%
same,"viability, T/C",[24],92.9%
same,"viability, T/C",[25],73.8%
same,"viability, T/C",[26],71.6%
same,"viability, T/C",[27],76.7%
same,"viability, T/C",[28],74.4%
same,"viability, T/C",[29],79.3%
same,"viability, T/C",[30],75.5%
same,"viability, T/C",[31],69.6%
same,"viability, T/C",[32],77.7%
same,"viability, T/C",[33],79.1%
same,"viability, T/C",[34],72.6%
same,"viability, T/C",[35],69.8%
same,"viability, T/C",[36],71.2%
CC1COCCN1c1cc(C2(O)CC3CCC(C2)O3)c2cnn(-c3ccn[nH]3)c2n1 (stereo unspecified) + Cc1[nH]c2ccc(F)cc2c1-c1nc2c3cccnc3c3ncccc3c2[nH]1,IC50,second compound 0.0316 µM,99.9 nM
same,IC50,second compound 0.1 µM,99.1 nM
same,IC50,second compound 0.316 µM,90.4 nM
same,IC50,second compound 1 µM,82.9 nM
same,IC50,second compound 3.16 µM,47.6 nM
same,IC50,second compound 10 µM,38.3 nM
same,"viability, T/C",[1],80.1%
same,"viability, T/C",[2],49.7%
same,"viability, T/C",[3],31.2%
same,"viability, T/C",[4],20.5%
same,"viability, T/C",[5],14.6%
same,"viability, T/C",[6],9.97%
same,"viability, T/C",[7],76.6%
same,"viability, T/C",[8],50.4%
same,"viability, T/C",[9],30%
same,"viability, T/C",[10],20.7%
same,"viability, T/C",[11],15.8%
same,"viability, T/C",[12],10.3%
same,"viability, T/C",[13],75.3%
same,"viability, T/C",[14],46.9%
same,"viability, T/C",[15],30.2%
same,"viability, T/C",[16],21.3%
same,"viability, T/C",[17],15.4%
same,"viability, T/C",[18],9.62%
same,"viability, T/C",[19],70.6%
same,"viability, T/C",[20],46.3%
same,"viability, T/C",[21],28.8%
same,"viability, T/C",[22],20.4%
same,"viability, T/C",[23],14.9%
same,"viability, T/C",[24],9.89%
same,"viability, T/C",[25],56.5%
same,"viability, T/C",[26],37.9%
same,"viability, T/C",[27],26.5%
same,"viability, T/C",[28],19.4%
same,"viability, T/C",[29],14.7%
same,"viability, T/C",[30],9.57%
same,"viability, T/C",[31],52.4%
same,"viability, T/C",[32],38%
same,"viability, T/C",[33],25.7%
same,"viability, T/C",[34],18.2%
same,"viability, T/C",[35],15.1%
same,"viability, T/C",[36],9.9%
COc1cccc2c1C(=O)c1c(O)c3c(c(O)c1C2=O)CC(O)(C(=O)CO)CC3OC1CC(N)C(O)C(C)O1 (stereo unspecified) + CN(C)c1ccc(Nc2c3ccc(NC(=O)CCN4CCCC4)cc3nc3cc(NC(=O)CCN4CCCC4)ccc23)cc1,IC50,second compound 0.0316 µM,91.8 nM
same,IC50,second compound 0.1 µM,77.9 nM
same,IC50,second compound 0.316 µM,73.2 nM
same,IC50,second compound 1 µM,65.5 nM
same,IC50,second compound 3.16 µM,47.1 nM
same,IC50,second compound 10 µM,< 31.6 nM
same,"viability, T/C",[1],62.9%
same,"viability, T/C",[2],48.1%
same,"viability, T/C",[3],32%
same,"viability, T/C",[4],20.6%
same,"viability, T/C",[5],1.62%
same,"viability, T/C",[6],2.01%
same,"viability, T/C",[7],62.7%
same,"viability, T/C",[8],45%
same,"viability, T/C",[9],31%
same,"viability, T/C",[10],18.3%
same,"viability, T/C",[11],1.63%
same,"viability, T/C",[12],2.02%
same,"viability, T/C",[13],63.6%
same,"viability, T/C",[14],43.5%
same,"viability, T/C",[15],30.1%
same,"viability, T/C",[16],18.9%
same,"viability, T/C",[17],2.31%
same,"viability, T/C",[18],1.97%
same,"viability, T/C",[19],59.1%
same,"viability, T/C",[20],42%
same,"viability, T/C",[21],33.6%
same,"viability, T/C",[22],15.2%
same,"viability, T/C",[23],3.04%
same,"viability, T/C",[24],1.66%
same,"viability, T/C",[25],56.9%
same,"viability, T/C",[26],35.7%
same,"viability, T/C",[27],29.4%
same,"viability, T/C",[28],16.1%
same,"viability, T/C",[29],2.59%
same,"viability, T/C",[30],1.1%
same,"viability, T/C",[31],25.3%
same,"viability, T/C",[32],17.3%
same,"viability, T/C",[33],10%
same,"viability, T/C",[34],7.22%
same,"viability, T/C",[35],0.49%
same,"viability, T/C",[36],0.61%
